Article PMC12250763, “Synergistic and Antagonistic Mechanisms of Arctium lappa L. Polyphenols on Human Neutrophil Elastase Inhibition: Insights from Molecular Docking and Enzymatic Kinetics” (Molecules, 2025)

Target: T1, human neutrophil elastase (HNE) (Homo sapiens, UniProt P08246)
T1 construct: gene ELANE
T1 sequence (P08246 30-247): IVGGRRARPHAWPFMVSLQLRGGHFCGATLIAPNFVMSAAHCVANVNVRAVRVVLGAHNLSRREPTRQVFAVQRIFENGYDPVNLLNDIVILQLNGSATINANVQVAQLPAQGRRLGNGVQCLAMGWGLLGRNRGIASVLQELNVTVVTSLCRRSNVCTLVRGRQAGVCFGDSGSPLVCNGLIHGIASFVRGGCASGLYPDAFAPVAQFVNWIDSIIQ
Assay: chromogenic elastase assay (MeOSuc-AAPV-pNA, […] nm), dose-response
Assay type: biochemical

IC50 | Structure (SMILES)
203 µM | O=C(/C=C/c1ccc(O)c(O)c1)O[C@@H]1C[C@](O)(C(=O)O)C[C@@H](O)[C@H]1O [Cha, chlorogenic acid]
171 µM | O=C(/C=C/c1ccc(O)c(O)c1)O[C@@H]1C[C@](O)(C(=O)O)C[C@@H](OC(=O)/C=C/c2ccc(O)c(O)c2)[C@H]1O [Iso A, isochlorogenic acid A]
